Results on one molecule are retold here after patent publication US20220228126A1, “USE OF PCBP1 TO GENERATE INDUCED PLURIPOTENT STEM CELLS WHILE INHIBITING ONCOGENESIS” (priority 2019, published 2022).

Assay [1] deals with reactive oxygen species (ROS). The note with it: mechanism shown in FIG. 25; cited from earlier work.
Assay [2] relates to c-Myc. Kind of assay: qRT-PCR quantification of c-Myc expression in cancer stem cells. It is filed as cell-based, human. The note with it: 10 μM niclosamide, DMSO base-line; U87-MG (CSC), DU-145 (CSC), MCF-7 (CSC). The protocol: (§1) FIG. 28A-B: qRT-PCR quantification of c-Myc and BCL-2 expression in U87-MG(CSC) cells treated with DMSA or 10 μM niclosamide. For calculations: DMSO served as base-line in FIG. 28A. Mock-transfection served as base-line in FIG. 28B. Dotted line marks 1.5 fold change in y-axis, considered the benchmark for statistical significance.
(§2) FIG. 29A-B: qRT-PCR quantification of c-Myc and BCL-2 expression in DU-145 (CSC) cells treated with DMSA or 10 μM niclosamide. For calculations: DMSO served as base-line in FIG. 29A. Mock-transfection served as base-line in FIG. 29B. Dotted line marks 1.5 fold change in y-axis, considered the benchmark for statistical significance.
(§3) FIG. 30A-B. qRT-PCR quantification of c-Myc and BCL-2 expression in DU-145 (CSC) cells treated with DMSA or 10 μM niclosamide. For calculations: DMSO served as base-line in FIG. 30A. Mock-transfection served as base-line in FIG. 30B. Dotted line marks 1.5 fold change in y-axis, considered the benchmark for statistical significance.
(§4) U87-MG (CSC) were used to validate the NF-kB pathway. Cells were lysed using RIPA lysis buffer and 35 mcg cell lysate protein (determined by BCA assay) was loaded per well. […] The expression of c-Myc in the cells as measured by Western Blot was normalized. […] RNA levels were measured by qPRC using gene-specific Taqman probes for c-Myc and BCL-2. […]
On the technique in general: In qPCR the cycle at which signal appears reflects the starting amount.

The subject of assay [3] is BCL-2. In words: qRT-PCR quantification of BCL-2 expression in cancer stem cells. The note with it: 10 μM niclosamide, DMSO base-line; U87-MG (CSC), DU-145 (CSC), MCF-7 (CSC). It is filed as cell-based, human. How it is done: as §1, §2, §3, §4

Regarding `O=C(Nc1ccc([N+](=O)[O-])cc1Cl)c1cc(Cl)ccc1O` [niclosamide], the “intracellular ROS content” value in assay [1] is listed as “elevates”. In assay [2], the c-Myc expression entry is “significantly down-regulated”. Moreover, in assay [3], the BCL-2 expression entry is “significantly down-regulated”.
